pIC50, pKi: −log10 of the molar value. Structures can show the parent of a compound that is named as a salt. Where two headings read alike, the source gives them in different places.
Tests used:
[1] = molecular target: rat brain nicotinic receptor (α7 NAChR, α-Bungarotoxin binding site) (Rattus norvegicus, UniProt Q05941)
[2] = Metabolic stability assay in human liver microsomes (HLM; Protocols 1 and 2); assay type: in vitro ADME; conditions: 1 μM
Protocol: Example B4: Metabolic Stability Assays
Studies were carried out in human and rat liver microsomes (“HLM” and “RLM,” respectively). Human and rat liver microsomes were purchased from BD Gentest. DMSO stocks were prepared for the test compounds. Aliquots of the DMSO solutions were diluted to 0.5 mM by acetonitrile, then further diluted by liver microsomes/buffer to 1.5 μM. 30 μL of 1.5 μM solutions were mixed with 15 μL of 6 mM NADPH, which had been pre-warmed to 37° C., at a final test compound concentration of 1 μM. The plates were kept in a 37° C. water bath for the duration of the experiment. At each time point (0, 5, 15, 30, 45 minutes), 135 μL of acetonitrile was added into corresponding wells. After the final time point was sampled, the plates were shaken at a vibrator (IKA, MTS 2/4) for 10 min (600 rpm/min) and then centrifuged at 5594 g for 15 min (Thermo Multifuge×3R). Aliquots of the supernatant were removed, diluted 1:1 into distilled water, and analyzed by LC-MS/MS. The peak area response ratio to internal standard (PARR) of the compounds at 5, 15, 30, 45 minutes was compared to the PARR at time 0 to determine the percent of test compound remaining at each time point. Half-lives were calculated using Excel software, fitting to a single-phase exponential decay equation.
Studies were carried out in human and rat liver microsomes. Buffer solutions were prepared as follows: Buffer A: 1.0 L of 0.1 M monobasic Potassium Phosphate buffer containing 1.0 mM EDTA; Buffer B: 1.0 L of 0.1 M Dibasic Potassium Phosphate buffer containing 1.0 mM EDTA; Buffer C: 0.1 M Potassium Phosphate buffer, 1.0 mM EDTA, pH 7.4 by titrating 700 mL of buffer B with buffer A while monitoring with a pH meter.
Reference compound (Ketanserin) and test compound spiking solutions were prepared as follows: 500 μM spiking solution: add 10 μL of 10 mM DMSO stock solution into 190 μL ACN; 1.5 μM spiking solution in microsomes (0.75 mg/mL): add 1.5 μL of 500 μM spiking solution and 18.75 μL of 20 mg/mL liver microsomes into 479.75 μL of Buffer C.
NADPH stock solution (6 mM) was prepared by dissolving NADPH into buffer C.
Assay procedure: 30 μL of 1.5 μM spiking solution containing 0.75 mg/mL microsomes solution was dispensed to the wells designated for 45 min, 30 min, 15 min, 5 min, and 0 min. The plate was pre-incubated at 37° C. for 10 minutes. 15 μL of NADPH stock solution (6 mM) was added to the wells designated as Time 45, and the timer was started. At 30 min, 15 min, and 5 min, 15 μL NADPH stock solution (6 mM) was added to the wells, respectively. At the end of incubation (0 min), 135 tit of ACN containing IS was added to all the wells. Then 15 tit of NADPH stock solution (6 mM) was added to the wells designated as Time 0. After quenching, the reaction mixtures were centrifuged at 3220 g for 10 min. Following centrifugation, 50 μL of the supernatant was transferred from each well into a 96-well sample plate containing 50 μL of ultra-pure water (Millipore) for LC/MS analysis. The peak area response (PARR) ratio to internal standard of the compounds at 5, 15, 30, and 45 minutes was compared to the PARR at time 0 to determine the percent of test compound remaining at each time point. Half-lives were calculated using Excel software, fitting to a single-phase exponential decay equation.

[3] = Human plasma stability (Protocols 1 and 2); assay type: in vitro ADME; conditions: human
Protocol: Example B6: Human Plasma Stability
Studies were carried out in human plasma. All plasma was obtained from Bioreclamation and collected on sodium heparin. Plasma was adjusted to pH 7.4. A DMSO stock was first prepared for the test compound. An aliquot of the DMSO solution was dosed into 1 mL of plasma, which had been pre-warmed to 37° C., at a final test compound concentration of 1 μM. The vials were kept in a benchtop Thermomixer® for the duration of the experiment. Aliquots (100 μL) were taken at each time point (0, 15, 30, 60, and 120 minutes) and added to 96-well plates which had been pre-filled with 300 μL of acetonitrile. Samples were stored at 4° C. until the end of the experiment. After the final time point was sampled, the plate was mixed and then centrifuged at 3,000 rpm for 10 minutes. Aliquots of the supernatant were removed, diluted 1:1 into distilled water, and analyzed by LC-MS/MS. The peak area response ratio to internal standard (PARR) of the compound at 15, 30, 60 and 120 minutes was compared to the PARR at time 0 to determine the percent of test compound remaining at each time point. Half-lives were calculated using GraphPad software, fitting to a single-phase exponential decay equation.
Studies were carried out in plasma. Plasma was prepared under approval of IRB and IACUC on sodium heparin. The pH of plasma was monitored and used within the range of pH 7.4 to pH 8.0. DMSO stocks were prepared for the test compounds. Aliquots of the DMSO solutions were diluted to 0.05 mM by 0.05 mM Sodium phosphate buffer with 0.5% BSA. Then 10 μL of 0.05 mM solutions were dosed into 90 μL of plasma in duplicates (n=2), which had been pre-warmed to 37° C., at a final test compound concentration of 5 μM. The plates were kept in a 37° C. water bath for the duration of the experiment. At each time point (0, 5, 15, 30, 45, 60, and 120 minutes), 400 μL of acetonitrile was added into corresponding wells. After the final time point was sampled, the plates were shaken at the vibrator (IKA, MTS 2/4) for 10 min (600 rpm/min) and then centrifuged at 5594 g for 15 min (Thermo Multifuge×3R). Aliquots of the supernatant were removed, diluted 1:1 into distilled water, and analyzed by LC-MS/MS. The peak area response ratio to internal standard (PARR) of the compounds at 5, 15, 30, 45, 60, and 120 minutes was compared to the PARR at time 0 to determine the percent of test compound remaining at each time point. Half-lives were calculated using Excel software, fitting to a single-phase exponential decay equation.

Human α7 NAChR = molecular target: T1, Human α7 NAChR (Homo sapiens, UniProt P36544); test: Electrophysiology screen at 1 μM in Xenopus laevis oocytes; assay type: cell-based; conditions: test compound 1 μM; Imax = maximal current produced by 3 mM ACh; holding voltage −70 mV
T1 construct: TriLink (mRNA); Ecocyte Bioscience (oocytes); host or cells: Xenopus laevis oocytes injected with mRNA
Protocol: Example B2: Electrophysiology Screen at 1 μM in Xenopus Laevis Oocytes
Human α7 NAChR mRNA Preparation:
Human α7 NAChR plasmid was prepared by GeneWiz from accession NM_000746.5. Human α7 NAChR mRNA was prepared by TriLink at a concentration near 1 μg/μL. The human α7 NAChR mRNA was diluted in sterile water to a working concentration near 10 ng/μL.
Xenopus laevis Oocyte Injection and Maintenance:
Oocytes were obtained from Xenopus laevis frogs and treated with collagenase by Ecocyte Bioscience. Oocytes were injected with the working concentration of α7 NAChR mRNA at a volume of 50 nL for a total of approximately 0.5 ng of α7 NAChR mRNA. Oocytes were maintained in Barth's solution at a temperature of 16° C. The Barth's solution was replaced daily.
Electrophysiology Measurement:
Two-electrode voltage clamp recordings were made 3-14 days following mRNA injections at a holding voltage of −70 mV. […]
In all oocyte recordings, drug and wash solutions were applied using a custom-designed microcapillary “linear array” which allows rapid application of agonists. Currents were recorded on a PC-based computer (PClamp, Molecular Devices, Sunnyvale, Calif.). […]
Stocks of test compounds were prepared in DMSO. […] The test solution was perfused onto the oocyte until a peak current was recorded. […]

[4] = Protocol 1, human liver microsomes, NADPH, 37° C.
[5] = Protocol 2, plasma pH 7.4 to 8.0, 5 μM, 37° C., read-out: T1/2

Sequence of rat brain nicotinic receptor (α7 NAChR, α-Bungarotoxin binding site) (Q05941 23-502): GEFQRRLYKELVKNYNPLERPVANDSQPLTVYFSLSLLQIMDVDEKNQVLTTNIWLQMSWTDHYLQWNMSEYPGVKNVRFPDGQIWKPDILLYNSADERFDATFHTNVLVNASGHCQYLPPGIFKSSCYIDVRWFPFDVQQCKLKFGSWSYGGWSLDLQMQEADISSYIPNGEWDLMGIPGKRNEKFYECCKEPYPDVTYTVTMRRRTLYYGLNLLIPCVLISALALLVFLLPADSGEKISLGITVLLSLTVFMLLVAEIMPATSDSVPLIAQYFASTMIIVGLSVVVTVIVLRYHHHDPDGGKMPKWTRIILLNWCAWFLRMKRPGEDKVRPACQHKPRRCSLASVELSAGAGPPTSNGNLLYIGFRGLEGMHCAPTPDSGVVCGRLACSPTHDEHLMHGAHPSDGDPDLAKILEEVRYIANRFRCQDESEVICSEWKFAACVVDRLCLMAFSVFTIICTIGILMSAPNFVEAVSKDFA
T1 sequence (P36544 23-502): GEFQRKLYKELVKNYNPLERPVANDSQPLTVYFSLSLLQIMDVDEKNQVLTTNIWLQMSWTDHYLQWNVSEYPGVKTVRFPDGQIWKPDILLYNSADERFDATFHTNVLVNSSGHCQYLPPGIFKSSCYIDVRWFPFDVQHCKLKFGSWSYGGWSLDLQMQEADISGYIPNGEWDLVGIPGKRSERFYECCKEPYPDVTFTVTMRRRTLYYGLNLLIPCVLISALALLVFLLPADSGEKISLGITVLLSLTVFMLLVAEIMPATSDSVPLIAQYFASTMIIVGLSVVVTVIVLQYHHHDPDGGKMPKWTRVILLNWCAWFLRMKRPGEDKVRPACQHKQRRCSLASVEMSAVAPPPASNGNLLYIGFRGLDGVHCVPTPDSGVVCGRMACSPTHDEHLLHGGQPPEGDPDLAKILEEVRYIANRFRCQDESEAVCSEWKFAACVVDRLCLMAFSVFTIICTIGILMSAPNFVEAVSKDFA

SMILES | HLM ([2]; human, microsomes) [mL/min/kg] | HLM [2, 4] [mL/min/kg] | half-life at 5 μM [3, 5] [h] | half-life at 5 μM ([3]; plasma, pH 7.4) [h] | also measured
COc1ccc2c(C(=O)OCC34CCN(CC3)CC4)c[nH]c2c1 [Compound 10, quinuclidin-4-ylmethyl 6-methoxy-1H-indole-3-carboxylate] |  |  |  |  | pIC50 [1]: 6.49; pKi [1]: 6.55
Cc1cc(F)cc2[nH]cc(C(=O)OCC34CCN(CC3)CC4)c12 [Compound 44, quinuclidin-4-ylmethyl 6-fluoro-4-methyl-1H-indole-3-carboxylate] | 3.5 |  |  |  | T1/2 ([3]; plasma, pH 7.4): ∞
COc1cc2c(C(=O)OCC34CCN(CC3)CC4)c[nH]c2cc1F [Compound 57, quinuclidin-4-ylmethyl 6-fluoro-5-methoxy-1H-indole-3-carboxylate] |  | 0 | 5.47 |  | 
Cl.O=C(OCC12CCN(CC1)CC2)c1c[nH]c2cc(O)c(F)cc12 [Compound 59, Quinuclidin-4-ylmethyl 5-fluoro-6-hydroxy-1H-indole-3-carboxylate hydrochloride] |  | 0 | 2.27 |  | 
Cc1cc2[nH]cc(C(=O)OCC34CCN(CC3)CC4)c2cc1Cl.Cl [Compound 66, quinuclidin-4-ylmethyl 5-chloro-6-methyl-1H-indole-3-carboxylate hydrochloride] |  | 0 | 5.26 |  | 
COc1cc2c(C(=O)OCC34CCN(CC3)CC4)c[nH]c2cc1Cl [Compound 69, quinuclidin-4-ylmethyl 6-chloro 5-methoxy-1H-indole-3-carboxylate, hydrochloride] | 8.8 |  |  | 6.93 | 
Cc1ccc2[nH]cc(C(=O)OCC34CCN(CC3)CC4)c2c1C [Compound 70, quinuclidin-4-ylmethyl 4,5-dimethyl-1H-indole-3-carboxylate] | 0 |  |  | 4.16 | 
Cc1cc2c(C(=O)OCC34CCN(CC3)CC4)c[nH]c2cc1Cl [Compound 78, quinuclidin-4-ylmethyl 6-chloro-5-methyl-1H-indole-3-carboxylate] | 0 |  |  | 4.77 | 
COc1cc2c(C(=O)OCC34CCN(CC3)CC4)c[nH]c2cc1C.Cl [Compound 79, quinuclidin-4-ylmethyl 5-methoxy-6-methyl-1H-indole-3-carboxylate hydrochloride] |  |  | 2.71 |  | I/Imax (Human α7 NAChR): 0.259; pIC50 [1]: 6.80; pKi [1]: 6.86
Cl.O=C(OCC12CCN(CC1)CC2)c1c[nH]c2cccc(C(F)(F)F)c12 [Compound 80, Quinuclidin-4-ylmethyl 4-(trifluoromethyl)-1H-indole-3-carboxylate hydrochloride] |  |  | 10.9 |  | I/Imax (Human α7 NAChR): 0.032
Cc1cc(O)cc2[nH]cc(C(=O)OCC34CCN(CC3)CC4)c12 [Compound 83, quinuclidin-4-ylmethyl 6-hydroxy-4-methyl-1H-indole-3-carboxylate] | 2.7 |  |  | 6.48 | 
COc1cc2[nH]cc(C(=O)OCC34CCN(CC3)CC4)c2cc1OC [Compound 87, quinuclidin-4-ylmethyl 5,6-dimethoxy-1H-indole-3-carboxylate] |  | 0.5 | 2.41 |  | 
